Assay results taken from PubChem BioAssay (NCI).
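Interpolation was linear, between the two tested concentrations surrounding the appropriate level; five concentrations were tested over 48 hours in 96-well plates. TGI denotes the concentration required for complete inhibition of growth.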

How the values were obtained:
Assay in all cases: inhibition of tumour cell growth, NCI panel, 48 h
SK-MEL-5 melanoma = system: SK-MEL-5 melanoma
UACC-62 melanoma = system: UACC-62 melanoma
HL-60(TB) leukemia = system: HL-60(TB) leukemia
LOX IMVI melanoma = system: LOX IMVI melanoma
RPMI-8226 leukemia = system: RPMI-8226 leukemia
U251 CNS = system: U251 CNS
MDA-MB-231 breast = system: MDA-MB-231 breast
BT-549 breast = system: BT-549 breast

Measured: TGI

CCc1ccc2oc(-c3cc(O)c(-c4nc5cc(CC)ccc5o4)cc3O)nc2c1
> 100 µM: SK-MEL-5 melanoma | UACC-62 melanoma | HL-60(TB) leukemia | LOX IMVI melanoma | RPMI-8226 leukemia | U251 CNS | MDA-MB-231 breast

CCCSc1ccc2[nH]c(/N=C/c3ccco3)cc2c1
32.6 µM: SK-MEL-5 melanoma
1.4 µM: RPMI-8226 leukemia
84.4 µM: HL-60(TB) leukemia
> 100 µM: UACC-62 melanoma | LOX IMVI melanoma | BT-549 breast

CCCCCC(=O)NC(=S)Nc1nn[nH]n1
> 100 µM: SK-MEL-5 melanoma | UACC-62 melanoma | HL-60(TB) leukemia | LOX IMVI melanoma | RPMI-8226 leukemia | U251 CNS | MDA-MB-231 breast

Cc1cn(C(Cc2ccccc2)OCCO)c(=O)[nH]c1=O (stereo not given)
> 100 µM: SK-MEL-5 melanoma | UACC-62 melanoma | LOX IMVI melanoma | RPMI-8226 leukemia | U251 CNS | BT-549 breast | MDA-MB-231 breast

CNC(=O)Oc1ccc(-c2cn3cc(OC(=O)NC)ccc3n2)cc1
81.9 µM: RPMI-8226 leukemia
> 100 µM: SK-MEL-5 melanoma | UACC-62 melanoma | LOX IMVI melanoma | U251 CNS | BT-549 breast | MDA-MB-231 breast

OCC1OC(n2cnc3c(Cl)nc(Nc4ccccc4)nc32)CC1O (stereo not given)
36.5 µM: LOX IMVI melanoma
> 100 µM: SK-MEL-5 melanoma | UACC-62 melanoma | RPMI-8226 leukemia | U251 CNS | BT-549 breast | MDA-MB-231 breast

NP(=O)(OCC1=CC(=O)c2ccccc2C1=O)N(CCBr)CCBr (stereo not given)
> 67.3 µM: RPMI-8226 leukemia
5.3 µM: UACC-62 melanoma
> 100 µM: HL-60(TB) leukemia
29.1 µM: LOX IMVI melanoma
28.7 µM: U251 CNS
3.21 µM: SK-MEL-5 melanoma
27.2 µM: MDA-MB-231 breast

COC(=O)C1=C2SCc3cccc(c3)CSC3=C(C(=O)OC)SC(=C(S2)S1)S3
80.9 µM: HL-60(TB) leukemia
> 100 µM: SK-MEL-5 melanoma | UACC-62 melanoma | RPMI-8226 leukemia | U251 CNS
74.9 µM: MDA-MB-231 breast

CC1=NN(c2ccc(S(=O)(=O)O)cc2)C2(C1)SCC(=O)N2c1nc2ccccc2s1 (stereo not given)
> 100 µM: SK-MEL-5 melanoma | UACC-62 melanoma | LOX IMVI melanoma | RPMI-8226 leukemia | U251 CNS | BT-549 breast | MDA-MB-231 breast

CC1CCOc2ccc(cc2)C=Nc2ccc(cc2)CCc2ccc(cc2)N=Cc2ccc(cc2)OCC1 (stereo not given)
> 100 µM: SK-MEL-5 melanoma | UACC-62 melanoma | LOX IMVI melanoma | RPMI-8226 leukemia | U251 CNS | BT-549 breast | MDA-MB-231 breast

Cc1ccc(-c2cc(N)n(-c3nc4c(c(=O)n(C)c(=O)n4C)n3C)n2)cc1
> 100 µM: SK-MEL-5 melanoma | UACC-62 melanoma | HL-60(TB) leukemia | RPMI-8226 leukemia | U251 CNS | BT-549 breast | MDA-MB-231 breast

C1CCC2C(C1)CCCC2NC1=NCCO1 (stereo not given)
> 100 µM: SK-MEL-5 melanoma | UACC-62 melanoma | HL-60(TB) leukemia | LOX IMVI melanoma | RPMI-8226 leukemia | U251 CNS | MDA-MB-231 breast

c1cc2nnnn2nc1N1CCCC1
> 100 µM: SK-MEL-5 melanoma | UACC-62 melanoma | HL-60(TB) leukemia | LOX IMVI melanoma | RPMI-8226 leukemia | U251 CNS | MDA-MB-231 breast

COC(=O)[C@@H]1CCCN1CCN1CCC[C@H]1C(=O)OC
> 100 µM: SK-MEL-5 melanoma | UACC-62 melanoma | RPMI-8226 leukemia | U251 CNS | MDA-MB-231 breast

C[C@H](N)C(=O)Nc1ccc(-c2nc3ccccc3s2)cc1
35.4 µM: UACC-62 melanoma
32.2 µM: U251 CNS
43 µM: SK-MEL-5 melanoma
> 100 µM: LOX IMVI melanoma | BT-549 breast
36.5 µM: MDA-MB-231 breast

Cc1cn(C2CC(n3cc(Cn4cc(Br)c(=O)[nH]c4=O)nn3)C(CO)O2)c(=O)[nH]c1=O (stereo not given)
> 100 µM: SK-MEL-5 melanoma | UACC-62 melanoma | LOX IMVI melanoma | RPMI-8226 leukemia | U251 CNS | BT-549 breast | MDA-MB-231 breast

Cc1ccn2c(=O)cc(-c3ccccc3)nc2c1
> 100 µM: SK-MEL-5 melanoma | UACC-62 melanoma | HL-60(TB) leukemia | RPMI-8226 leukemia | U251 CNS | BT-549 breast | MDA-MB-231 breast

CCOC(=O)c1ccc(N2C(=S)N(C(=O)c3ccccc3)C(=Nc3ccccc3)C2=Nc2ccccc2)cc1
> 100 µM: SK-MEL-5 melanoma | UACC-62 melanoma | RPMI-8226 leukemia | U251 CNS | BT-549 breast

NC(=O)NNC(=O)c1nc[nH]c1[N+](=O)[O-]
> 100 µM: SK-MEL-5 melanoma | UACC-62 melanoma | LOX IMVI melanoma | RPMI-8226 leukemia | U251 CNS | BT-549 breast | MDA-MB-231 breast

O=C(Cc1ccccc1)NN1C(=O)/C(=C\c2cccc(O)c2)SC1=Nc1ccccc1
> 100 µM: SK-MEL-5 melanoma | UACC-62 melanoma | U251 CNS | MDA-MB-231 breast

O=C1CCCCC(=O)OC2(CCCCC2=O)CC1 (stereo not given)
> 100 µM: SK-MEL-5 melanoma | UACC-62 melanoma | RPMI-8226 leukemia | U251 CNS | BT-549 breast | MDA-MB-231 breast

N#C/C(=C\n1ccc(=O)[nH]c1=S)C(N)=O
> 100 µM: SK-MEL-5 melanoma | UACC-62 melanoma | HL-60(TB) leukemia | LOX IMVI melanoma | RPMI-8226 leukemia | U251 CNS | MDA-MB-231 breast

CC1=COC(C)(C=C(C#N)C#N)CC1 (stereo not given)
> 100 µM: SK-MEL-5 melanoma | UACC-62 melanoma | RPMI-8226 leukemia | U251 CNS | MDA-MB-231 breast
50.1 µM: HL-60(TB) leukemia

Nn1c(CCCCCCCCc2nnc(COc3ccc(Cl)cc3)n2N)nnc1COc1ccc(Cl)cc1
> 100 µM: SK-MEL-5 melanoma | UACC-62 melanoma | RPMI-8226 leukemia | U251 CNS | BT-549 breast | MDA-MB-231 breast
